Measured values reported in PMC4859410 (Pharmacogenetics and genomics, 2010).

What was measured:
Type in all cases: in vitro ADME
OATP1B3 = molecular target: T1, OATP1B3 (Homo sapiens, UniProt Q9NPD5); assay: Drug uptake in X. laevis oocytes injected with SLCO1B3; conditions: without human serum albumin; for Drug uptake, OATP1B3: OATP1B3 cRNA injected oocytes; for Drug uptake, OATP1B3 / Drug uptake, Water: 1 µM (darunavir 3 µM, performed once), 18°C, 1hr, mean ± SD; for Drug uptake, Water: water injected control oocytes (Table 3); for Ratio (fold increase in OATP1B3 cRNA injected oocytes compared to water injected oocytes): * = P < 0.05
T1 sequence (Q9NPD5 1-702): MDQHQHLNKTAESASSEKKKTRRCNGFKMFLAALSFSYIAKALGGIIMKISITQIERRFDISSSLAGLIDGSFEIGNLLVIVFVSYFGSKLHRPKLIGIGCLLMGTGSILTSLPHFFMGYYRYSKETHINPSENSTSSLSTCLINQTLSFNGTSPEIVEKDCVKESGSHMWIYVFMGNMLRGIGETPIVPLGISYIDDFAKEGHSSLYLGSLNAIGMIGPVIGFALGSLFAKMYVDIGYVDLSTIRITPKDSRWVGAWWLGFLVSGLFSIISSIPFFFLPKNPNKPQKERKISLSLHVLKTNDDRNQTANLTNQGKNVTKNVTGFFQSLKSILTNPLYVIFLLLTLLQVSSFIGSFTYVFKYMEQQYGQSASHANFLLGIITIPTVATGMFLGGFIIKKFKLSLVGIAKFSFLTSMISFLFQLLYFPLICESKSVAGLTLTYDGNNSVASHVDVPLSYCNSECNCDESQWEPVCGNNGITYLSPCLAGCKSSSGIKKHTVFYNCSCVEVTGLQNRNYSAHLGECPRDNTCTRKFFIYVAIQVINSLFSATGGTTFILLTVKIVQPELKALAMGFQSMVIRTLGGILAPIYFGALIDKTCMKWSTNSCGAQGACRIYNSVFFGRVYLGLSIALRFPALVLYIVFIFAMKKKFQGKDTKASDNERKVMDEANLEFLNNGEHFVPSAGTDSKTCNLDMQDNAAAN

OATP1A2 = molecular target: T2, OATP1A2 (Homo sapiens, UniProt P46721); assay: Drug uptake in X. laevis oocytes injected with SLCO1A2; conditions: for Drug uptake, OATP1A2: OATP1A2 cRNA injected oocytes; for Drug uptake, OATP1A2 / Drug uptake, Water: 1 µM (darunavir 3 µM), 18°C, 1hr, mean ± SD; for Drug uptake, Water: water injected control oocytes (Table 1); for Accumulation in SLCO1A2 cRNA injected oocytes compared to water injected control oocytes (in words): in the presence and in the absence of 2% HSA; for Ratio (fold increase in OATP1A2 cRNA injected oocytes compared to water injected oocytes): * = P < 0.05
T2 sequence (P46721 1-670): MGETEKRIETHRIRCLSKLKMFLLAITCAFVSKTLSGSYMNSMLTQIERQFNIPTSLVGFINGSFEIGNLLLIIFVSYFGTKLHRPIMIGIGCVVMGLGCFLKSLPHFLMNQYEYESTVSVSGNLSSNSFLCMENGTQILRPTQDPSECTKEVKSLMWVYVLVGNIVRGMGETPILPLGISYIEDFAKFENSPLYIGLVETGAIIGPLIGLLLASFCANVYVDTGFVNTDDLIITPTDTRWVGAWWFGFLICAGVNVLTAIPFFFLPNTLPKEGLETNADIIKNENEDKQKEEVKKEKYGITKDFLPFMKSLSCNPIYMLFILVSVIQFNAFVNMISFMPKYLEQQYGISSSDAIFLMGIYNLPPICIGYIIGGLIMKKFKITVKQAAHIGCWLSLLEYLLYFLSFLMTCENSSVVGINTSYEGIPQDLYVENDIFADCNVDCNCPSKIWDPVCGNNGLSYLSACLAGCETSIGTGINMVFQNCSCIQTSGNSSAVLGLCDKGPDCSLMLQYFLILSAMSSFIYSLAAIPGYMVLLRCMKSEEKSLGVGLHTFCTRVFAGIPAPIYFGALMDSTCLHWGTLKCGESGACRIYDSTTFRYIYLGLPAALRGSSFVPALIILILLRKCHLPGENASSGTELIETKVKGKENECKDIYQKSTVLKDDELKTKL

OATP1B1 = molecular target: T3, OATP1B1 (Homo sapiens, UniProt Q9Y6L6); assay: Drug uptake in X. laevis oocytes injected with SLCO1B1; conditions: for Drug uptake, OATP1B1: OATP1B1 cRNA injected oocytes; for Drug uptake, OATP1B1 / Drug uptake, Water: 1 µM (darunavir 3 µM), 18°C, 1hr, mean ± SD; for Drug uptake, Water: water injected control oocytes (Table 2); for Accumulation in SLCO1B1 cRNA injected oocytes compared to water injected control oocytes (in words): in the presence and in the absence of 2% HSA; for Ratio (fold increase in OATP1B1 cRNA injected oocytes compared to water injected oocytes): * = P < 0.05
T3 sequence (Q9Y6L6 1-691): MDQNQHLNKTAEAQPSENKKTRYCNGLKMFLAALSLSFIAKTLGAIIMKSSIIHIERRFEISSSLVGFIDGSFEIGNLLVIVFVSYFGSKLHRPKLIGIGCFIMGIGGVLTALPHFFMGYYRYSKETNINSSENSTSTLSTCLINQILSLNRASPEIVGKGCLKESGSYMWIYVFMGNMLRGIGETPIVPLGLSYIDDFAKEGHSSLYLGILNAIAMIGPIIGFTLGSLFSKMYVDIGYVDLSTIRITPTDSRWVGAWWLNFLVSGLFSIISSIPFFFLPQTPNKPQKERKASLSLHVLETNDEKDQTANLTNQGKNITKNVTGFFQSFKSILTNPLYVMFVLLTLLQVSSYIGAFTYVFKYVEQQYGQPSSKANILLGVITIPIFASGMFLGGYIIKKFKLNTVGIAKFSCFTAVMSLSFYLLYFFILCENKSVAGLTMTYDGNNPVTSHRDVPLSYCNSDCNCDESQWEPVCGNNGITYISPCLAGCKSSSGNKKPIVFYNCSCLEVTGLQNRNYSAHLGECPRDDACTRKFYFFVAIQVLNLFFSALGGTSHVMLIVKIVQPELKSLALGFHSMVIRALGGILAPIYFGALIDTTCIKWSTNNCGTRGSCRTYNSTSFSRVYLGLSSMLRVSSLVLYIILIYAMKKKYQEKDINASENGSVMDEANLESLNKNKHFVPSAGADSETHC

SMILES | Drug uptake, OATP1B3 (OATP1B3) [pmol/oocyte] | Drug uptake, Water (OATP1B3) [pmol/oocyte] | Drug uptake, OATP1A2 (OATP1A2; with 2% human serum albumin) [pmol/oocyte] | Drug uptake, OATP1A2 (OATP1A2; without human serum albumin) [pmol/oocyte] | Drug uptake, Water (OATP1A2; with 2% human serum albumin) [pmol/oocyte] | Drug uptake, Water (OATP1A2; without human serum albumin) [pmol/oocyte] | Drug uptake, OATP1B1 (OATP1B1; with 2% human serum albumin) [pmol/oocyte] | Drug uptake, OATP1B1 (OATP1B1; without human serum albumin) [pmol/oocyte] | Drug uptake, Water (OATP1B1; with 2% human serum albumin) [pmol/oocyte] | Drug uptake, Water (OATP1B1; without human serum albumin) [pmol/oocyte] | Accumulation in SLCO1B3 cRNA injected oocytes compared to water injected control (in words) (OATP1B3) | Ratio (fold increase in OATP1B3 cRNA injected oocytes compared to water injected oocytes) (OATP1B3) | Accumulation in SLCO1A2 cRNA injected oocytes compared to water injected control oocytes (in words) (OATP1A2) | Ratio (fold increase in OATP1A2 cRNA injected oocytes compared to water injected oocytes) (OATP1A2; with 2% human serum albumin) | Ratio (fold increase in OATP1A2 cRNA injected oocytes compared to water injected oocytes) (OATP1A2; without human serum albumin) | Accumulation in SLCO1B1 cRNA injected oocytes compared to water injected control oocytes (in words) (OATP1B1) | Ratio (fold increase in OATP1B1 cRNA injected oocytes compared to water injected oocytes) (OATP1B1; with 2% human serum albumin) | Ratio (fold increase in OATP1B1 cRNA injected oocytes compared to water injected oocytes) (OATP1B1; without human serum albumin)
CC(C)CN(C[C@@H](O)[C@H](Cc1ccccc1)NC(=O)O[C@H]1CO[C@H]2OCC[C@H]21)S(=O)(=O)c1ccc(N)cc1 [Darunavir, darunavir] | 5.41 | 3.29 | 2.56 ± 0.78 | 4.32 ± 0.75 | 0.96 ± 0.37 | 2.18 ± 0.40 | 2.14 ± 0.82 | 4.13 ± 0.40 | 0.72 ± 0.18 | 2.12 ± 0.55 | – | – | – | – | – | – | – | –
O=C1Nc2ccc(Cl)cc2[C@@](C#CC2CC2)(C(F)(F)F)O1 [Efavirenz, efavirenz] | 18.21 ± 6.21 | 16.56 ± 6.84 | 1.63 ± 0.24 | 10.3 ± 2.90 | 1.47 ± 0.28 | 12.6 ± 2.49 | 1.51 ± 0.12 | 16.0 ± 4.17 | 1.46 ± 0.21 | 15.9 ± 1.70 | No significant increase | 1.10 | No significant increase | 1.11 | 0.81 | No significant increase | 1.03 | 1.00
C[C@]12CC[C@@H]3c4ccc(OS(=O)(=O)O)cc4CC[C@H]3[C@@H]1CCC2=O [estrone-3-sulphate] | 0.50 ± 0.20 | 0.21 ± 0.01 | 0.35 ± 0.15 | 2.02 ± 0.52 | 0.10 ± 0.03 | 0.19 ± 0.05 | 0.15 ± 0.03 | 0.51 ± 0.17 | 0.08 ± 0.03 | 0.16 ± 0.04 | trend towards increased accumulation | – | significant increase in accumulation | 3.55 * | 10.9 * | significant increase in accumulation | 1.90 * | 3.21 *
Cc1ccnc2c1NC(=O)c1cccnc1N2C1CC1 [Nevirapine, nevirapine] | 3.12 ± 0.47 | 2.98 ± 0.59 | 2.17 ± 0.26 | 2.92 ± 0.59 | 2.23 ± 0.93 | 2.65 ± 0.54 | 2.01 ± 0.40 | 2.26 ± 0.20 | 1.80 ± 0.46 | 2.14 ± 0.22 | No significant increase | 1.05 | No significant increase | 0.97 | 1.10 | No significant increase | 1.12 | 1.06
